Key:
[1] = Pharmacokinetic study in rat plasma after oral administration of QJYQ (UHPLC-sMRM); assay type: in vivo, Sprague-Dawley rats
Experimental: Exion LC AD tandem Blueline 3500 triple quadrupole mass spectrometer (AB SCIEX, Framingham, MA, United States) was used to thirty-three compounds in rat plasma. […] The whole detailed parameters of sMRM were obtained in Supplementary Table S1.
Rat plasma (100 μL) was mixed with 10% formic acid (10 μL) and vortexed for 1 min at room temperature. ISs (10 μL) and methanol/acetonitrile (1/1, v/v) (400 μL) were added and vortexed for 5 min, then centrifuged for 10 min at 14,000 rpm and 4°C. The transported supernatant was condensed to dryness under the flow of nitrogen gas. The dried residue was reconstituted with 70% methanol (100 μL) by vortex-mixing for 5 min and centrifuging at 14,000 rpm for 10 min. Last, 2 μL of the solution were injected into the UHPLC-sMRM system.
The pharmacokinetic study was approved by the Animal Ethics Committee of Tianjin University of Traditional Chinese Medicine (TCM-LAEC2021228). Ten male Sprague-Dawley rats (weight 220–240 g) was kept at the animal center of Tianjin University of Traditional Chinese Medicine (Tianjin, China). […] The sample was transferred right away following a 10 min period of centrifugation at 7000 rpm and 4°C. All plasma samples were frozen and stored at −80°C.
All the pharmacokinetic parameters were calculated using the DAS 1.0 software (Drug and Statistics 1.0, Medical College of Wannan, China). Pharmacokinetic parameters include the maximum drug concentration in plasma (Cmax), the time to achieve maximum drug concentration (Tmax), the area under the plasma concentration-time curve (AUC), elimination half-life (T1/2), and mean residence time (MRT). The pharmacokinetic parameters were computed using the non-compartmental model. All data are expressed as mean ± standard deviation (SD). GraphPad Prism 8.0 (GraphPad Software Inc., La Jolla, CA, United States) software was used to draw the drug-time curve.

[2] = Stability of analytes in rat plasma (auto-sampler, freeze-thaw, room temperature, long-term); details: for Autosampler for 24 h Accuracy (%): autosampler 24 h; for Room temperature for 24 h Accuracy (%): room temperature 24 h; for Freeze thaw cycles Accuracy (%): three freeze-thaw cycles
Experimental: The stability of analytes in plasma was evaluated by analyzing 4 QC samples (n = 6). The stability was included auto-sampler stability (keeping the sample in auto-sampler for 24 h), three times of freeze-thaw cycles stability (freezing cycle at −80°C, thawing cycle at room temperature), room temperature stability (storing samples at room temperature for 24 h), long-term stability (storing samples at −80°C for 1 month). […] Accompanying curve was established when testing the sample, calculate and compare the ratio of the actual measured concentration to the theoretical concentration, expressed in accuracy and RSD.

[3] = Stability of the working solution (4°C for 1 month); assay type: physicochemical

SMILES	Autosampler for 24 h Accuracy (%) ([2]; 12.5 ng/mL)	Room temperature for 24 h Accuracy (%) ([2]; 12.5 ng/mL)	Freeze thaw cycles Accuracy (%) ([2]; 12.5 ng/mL)	Autosampler for 24 h Accuracy (%) ([2]; 50 ng/mL)	Room temperature for 24 h Accuracy (%) ([2]; 50 ng/mL)	−80°C for 1month Accuracy (%) ([2]; 50 ng/mL, −80°C 1 month)	Autosampler for 24 h Accuracy (%) ([2]; 100 ng/mL)	Room temperature for 24 h Accuracy (%) ([2]; 100 ng/mL)	Freeze thaw cycles Accuracy (%) ([2]; 100 ng/mL)	Autosampler for 24 h Accuracy (%) ([2]; 500 ng/mL)	Room temperature for 24 h Accuracy (%) ([2]; 500 ng/mL)	Freeze thaw cycles Accuracy (%) ([2]; 500 ng/mL)	−80°C for 1month Accuracy (%) ([2]; 500 ng/mL, −80°C 1 month)	Working solution Accuracy (%) ([3]; 50 ng/mL)	Working solution Accuracy (%) ([3]; 100 ng/mL)	Working solution Accuracy (%) ([3]; 500 ng/mL)	−80°C for 1month Accuracy (%) ([2]; 100 ng/mL, −80°C 1 month)	Working solution Accuracy (%) ([3]; 12.5 ng/mL)	other results
O=C(/C=C/c1ccc(O)c(O)c1)O[C@@H]1C[C@](O)(C(=O)O)C[C@@H](O)[C@H]1O [chlorogenic acid]	94.6	97.3	100.0	97.5	106.0	115.0	96.9	105.0	95.5	85.5	94.3	96.9	94.3						detection in rat plasma ([1]; rat plasma after oral QJYQ 3.15 g/kg): not detected; −80°C for 1month Accuracy (%) ([2]; 12.5 ng/mL, −80°C 1 month): 98.3%
CC(C)(O[C@@H]1O[C@H](CO)[C@@H](O)[C@H](O)[C@H]1O)[C@@H]1CC[C@](O)(CO)[C@H]2CC(=O)[C@@](C)(O)[C@@H]2C1 [atractyloside A]				107.0	97.6	89.7	94.4	104.0		103.0	91.2		92.2	88.5	104.0	97.2	96.2		Working solution Accuracy (%) ([3]; 200 ng/mL): 87.0%; Freeze thaw cycles Accuracy (%) ([2]; 50 ng/mL): 84.6%; Autosampler for 24 h Accuracy (%) ([2]; 200 ng/mL): 91.5%; Room temperature for 24 h Accuracy (%) ([2]; 200 ng/mL): 89.9%; Freeze thaw cycles Accuracy (%) ([2]; 200 ng/mL): 97.0%; −80°C for 1month Accuracy (%) ([2]; 200 ng/mL, −80°C 1 month): 93.4%
O=C(/C=C/c1ccc(O[C@@H]2O[C@H](CO)[C@@H](O)[C@H](O)[C@H]2O)cc1)c1ccc(O)cc1O [isoliquiritin]	108.0	87.5	90.9				107.0	96.6	94.5	96.3	96.7	91.6	95.0			93.3	106.0	110.0	Working solution Accuracy (%) ([3]; 1.56 ng/mL): 106.0%; Autosampler for 24 h Accuracy (%) ([2]; 1.56 ng/mL): 99.3%; Room temperature for 24 h Accuracy (%) ([2]; 1.56 ng/mL): 88.9%; Freeze thaw cycles Accuracy (%) ([2]; 1.56 ng/mL): 95.5%; −80°C for 1month Accuracy (%) ([2]; 1.56 ng/mL, −80°C 1 month): 83.8%
O=C(/C=C/c1ccc(O)c(O)c1)O[C@H]1[C@H](O)C[C@](O)(C(=O)O)C[C@H]1O [cryptochlorogenic acid]	94.6	90.6	84.5	93.1	91.2	107.0	92.7		88.9	109.0	100.0	98.7	104.0	95.0	94.6	96.8	110.0	87.6	−80°C for 1month Accuracy (%) ([2]; 12.5 ng/mL, −80°C 1 month): 90.6%; Freeze thaw cycles Accuracy (%) ([2]; 50 ng/mL): 86.6%
O=C(O)[C@H]1O[C@@H](Oc2cc3oc(-c4ccc(O)cc4)cc(=O)c3c(O)c2O)[C@H](O)[C@@H](O)[C@@H]1O [scutellarin]					91.2	92.2	109.0	101.0	111.0	101.0	105.0	112.0	103.0	97.2	108.0	100.0	101.0		Working solution Accuracy (%) ([3]; 200 ng/mL): 99.4%; Autosampler for 24 h Accuracy (%) ([2]; 200 ng/mL): 94.7%; Room temperature for 24 h Accuracy (%) ([2]; 200 ng/mL): 90.6%; Freeze thaw cycles Accuracy (%) ([2]; 200 ng/mL): 85.4%; −80°C for 1month Accuracy (%) ([2]; 200 ng/mL, −80°C 1 month): 90.4%
COc1cc(/C=C/C(=O)O)cc(OC)c1O [sinapic acid]															94.2	87.0		90.2	AUC(0-t) ([1]; rat, in vivo, po, 3.15 g/kg): 86.98 ± 6.62 ng·h/mL; AUC(0-∞) ([1]; rat, in vivo, po, 3.15 g/kg): 86.99 ± 6.62 ng·h/mL; Cmax ([1]; rat, in vivo, po, 3.15 g/kg): 26.77 ± 7.87 ng/mL; MRT (0-∞) ([1]; rat, in vivo, po, 3.15 g/kg): 6.28 ± 0.91 h; MRT(0-t) ([1]; rat, in vivo, po, 3.15 g/kg): 6.28 ± 0.91 h; T1/2 ([1]; rat, in vivo, po, 3.15 g/kg): 2.20 ± 0.13 h; Working solution Accuracy (%) ([3]; 1.56 ng/mL): 100.0%
CC(=O)O[C@H]1[C@H](O[C@H]2CC[C@]34C[C@]35CC[C@]3(C)[C@@H]([C@@]6(C)CC[C@@H](C(C)(C)O)O6)[C@@H](O)C[C@@]3(C)[C@@H]5C[C@H](O[C@@H]3O[C@H](CO)[C@@H](O)[C@H](O)[C@H]3O)[C@H]4C2(C)C)OC[C@@H](O)[C@@H]1O [astragaloside II(IS)]																			Working solution Accuracy (%) ([3]; concentration 100 ng/mL): 96.7%; Autosampler for 24 h Accuracy (%) ([2]; concentration 100 ng/mL): 105.0%; −80°C for 1month Accuracy (%) ([2]; −80°C for 1 month, concentration 100 ng/mL): 115.0%
